{"source": "patent US20040166509A1", "about": "“Detecting hormonally active compounds” (priority 2002, published 2004)", "key": {"[1]": {"tested_on": "LMB genes (ER alpha, ER gamma, StAR)", "parameters": "species or system largemouth bass (LMB)", "conditions": "Table II, test not stated"}, "[2]": {"tested_on": "hepatic mRNA of adult male SHMs", "assay": "SHM cDNA macroarray (30 genes): hepatic gene expression profiles of exposed fish", "assay_type": "in vivo, sheepshead minnow (SHM)"}, "[3]": {"tested_on": "estrogen receptors alpha, beta, and gamma, and Vtg 1 mRNA", "assay": "Real-time PCR of ER and Vtg 1 mRNA in LMB liver", "assay_type": "in vivo, largemouth bass (LMB)", "conditions": "male LMB liver", "source_text": "Experimental Design and Sample Collection: Adult male LMB were purchased from American Sports Fish Hatchery (Montgomery, Ala.) and maintained in fiberglass tanks as previously described (Larkin et al., Comp. Biochem. Physiol. B. Biochem. Mol. Biol. 133:543-557, 2002; Larkin et al., Marine Environ. Res. 54:395-399, 2002; and Larkin et al., Comparative Biochemistry and Physiology 133:543-557, 2002). Array technology as a tool to monitor exposure of fish to xenoestrogens. Marine Environ. Res., 2002; Bowman et al., Mol. Cell. Endocrinol. 196:67-77, 2002). Each fish was injected IP with either 50 mg/kg 4-NP (Fluka, St. Louis, Mo. # 74430), the combination of 50 mg/kg 4-NP and 1.0 mg/kg ICI 182,780 (Tocris Cookson), or vehicle, which consisted of ethanol and DMSO (Sigma, St. Louis, Mo. #5879). Each dose was dissolved in 1 ml of ethanol and then diluted to the appropriate concentration with DMSO. The fish were euthanized by submersion in a water bath containing 50-100 ppm […] 48 hours post injection and sacrificed by a sharp blow to the head followed by cervical transaction. The livers were excised and immediately flash frozen in liquid nitrogen. The frozen tissues were stored at −80° C. until RNA was isolated.\nRNA Isolation: Isolation of total RNA from liver tissue was performed with the RNA Stat-60 reagent (Tel-test). Briefly, 30 mg-50 mg of tissue stored in RNA later was homogenized in 0.9 mls STAT 60, choloroform was added, and the mixture was centrifuged at 12,000 g for 15 minutes at 4° C. The extraction process was repeated and the pooled RNA was added to 500 μl isopropanol and allowed to precipitate at −20° C. for at least one hour. Following centrifugation at 12,000 g for 50 minutes, the pellet was washed with 70% ethanol, air dried and resuspended in an appropriate volume (50 μl-120 μl of RNA secure. The samples were treated with RNA secure (Ambion, Austin Tex. #7010) to inactivate contaminating RNases. All isolated RNA was treated with DNase solution (Ambion, Austin, Tex. #1906) following the manufacture's protocol. For all RNA samples, the quantity and quality of total RNA was assessed by spectrophotometric readings at 260 nm and by electrophoresis through a 1% formaldahyde agarose gel stained with ethidium bromide.\nReal-Time PCR: Real time PCR was performed using reagents and a 5700 thermocycler purchased from Applied Biosystems (ABI, Foster City, Calif.). The nucleotide sequences of the primers for the ER subtypes and Vtg 1 are as follows: 5′, […] (SEQ ID NO:563) AND 5′[…] (SEQ ID NO:564). Probes and primers for the ER subtypes and Vtg 1 are described in Bowman et al., Ecotoxicology 8:399-416, 1999; and Bowman et al., Mol. Cell Endocrinol. 196:67-77, 2002. Each real time PCR reaction consisted of 0.01-0.2 μg of reverse transcribed total RNA from liver tissue, 1× universal Taqman master mix (ABI, Foster City, Calif.), and primers and probes in a 25 μl reaction. […] Statistical differences between the treatments were determined by one way analysis of variance with Dunnets post-hoc analysis.\nMeasurement of ER and Vtg 1 mRNA by real-time PCR: Real-time PCR is a sensitive assay that can be used to quantitate expression levels of genes. Using this technology, assays were designed to quantitate the expression of 4 genes, estrogen receptors alpha, beta, and gamma, and Vtg 1 in LMB following exposure to 4-NP and 4-NP/ICI 182,780. […]"}, "hepatic RNA of LMB": {"tested_on": "hepatic RNA of LMB", "assay": "LMB gene array (132 genes): hepatic gene expression after IP injection", "assay_type": "in vivo, largemouth bass (LMB)", "conditions": "male LMB liver, two-fold cutoff vs control; for LMB50-1 (clone 50-1) expression / LMB67-1 signal peptidase, endopeptidase expression: 48 h after single IP 4-NP 50 mg/kg"}, "[4]": {"conditions": "48 h after single IP injection, 4-NP 50 mg/kg alone or with ICI 182,780 1.0 mg/kg, not significant"}, "[5]": {"conditions": "48 h after single IP dose: E2 2.5 mg/kg or 4-NP 50 mg/kg"}, "[6]": {"conditions": "48 h after single IP dose: E2 2.5 mg/kg or 4-NP 50 mg/kg, listed as NP"}, "[7]": {"conditions": "48 h after single IP dose: E2 2.5 mg/kg, 4-NP 50 mg/kg or p,p′-DDE 100 mg/kg"}, "[8]": {"conditions": "48 h after single IP dose: E2 2.5 mg/kg, 4-NP 50 mg/kg or p,p′-DDE 100 mg/kg, listed as NP"}}, "data": [{"smiles": "CCCCCCCCCc1ccc(O)cc1", "note": "[4-NP, para-nonylphenol]", "values": [{"measurement": "LMB_ER-ALPHA ESTROGEN RECEPTOR ALPHA differentially expressed by", "setting": "[1]", "value": "up-reg E2;"}, {"measurement": "Regulation", "setting": "[2]; Estrogen receptor alpha (clone ID not given)", "value": "up-reg E2; EE2,"}, {"measurement": "Regulation", "setting": "[2]; clone SHM2-1: vitellogenin alpha (2)", "value": "up-reg E2; EE2,"}, {"measurement": "Regulation", "setting": "[2]; clone SHM11: Transferrin", "value": "dn-reg E2; EE2,"}, {"measurement": "Regulation", "setting": "[2]; clone SHM41: Ubiquitin-conjugating enzyme 9", "value": "up-reg NP"}, {"measurement": "Regulation", "setting": "[2]; clone SHM72-3: Coagulation Factor XI", "value": "up-reg E2; EE2,"}, {"measurement": "Regulation", "setting": "[2]; clone SHM76-2: Alphal-microglobulin/bikunin precursor (AMBP) protein", "value": "d-reg E2; EE2,"}, {"measurement": "Vtg 1 message levels increase over controls", "setting": "[3]; 48 h after single IP 4-NP 50 mg/kg, p<0.05", "value": "approximately 40 fold"}, {"measurement": "ER α mRNA increase over controls", "setting": "[3]; 48 h after single IP injection, 4-NP 50 mg/kg alone (p<0.05) or with ICI 182,780 1.0 mg/kg (p<0.08)", "value": 80, "unit": "fold"}, {"measurement": "ER β mRNA decrease vs controls", "setting": "[3]; [4]", "value": "approximately 1.3 fold"}, {"measurement": "ER γ mRNA decrease vs controls", "setting": "[3]; [4]", "value": "~2.6", "unit": "fold"}, {"measurement": "LMB50-1 (clone 50-1) expression", "setting": "hepatic RNA of LMB", "value": "down-regulated"}, {"measurement": "LMB67-1 signal peptidase, endopeptidase expression", "setting": "hepatic RNA of LMB", "value": "up-regulated"}, {"measurement": "LMB50-1 (clone 50-1) expression", "setting": "hepatic RNA of LMB; listed as NP", "value": "Down reg NP;"}, {"measurement": "LMB67-1 signal peptidase, endopeptidase expression", "setting": "hepatic RNA of LMB; listed as NP", "value": "Up-reg NP"}, {"measurement": "LMB5 vitellogenin-2A expression", "setting": "hepatic RNA of LMB; [5]", "value": "Up reg E2;"}, {"measurement": "LMB92-1 (unidentified clone 92-1) expression", "setting": "hepatic RNA of LMB; [5]", "value": "up-regulated"}, {"measurement": "LMB94-1 transferrin expression", "setting": "hepatic RNA of LMB; [5]", "value": "down-regulated"}, {"measurement": "LMB112-1 cathepsin (Aspartic protease) expression", "setting": "hepatic RNA of LMB; [5]", "value": "up-regulated"}, {"measurement": "LMB141 vitellogenin-3 expression", "setting": "hepatic RNA of LMB; [5]", "value": "up reg E2; NP,"}, {"measurement": "four Vtg genes expression", "setting": "hepatic RNA of LMB; [5]", "value": "up-regulated (only genes that exhibit a two-fold or greater change in expression were considered to be differentially regulated)"}, {"measurement": "LMB92-1 (unidentified clone 92-1) expression", "setting": "hepatic RNA of LMB; [6]", "value": "up-reg E2;"}, {"measurement": "LMB94-1 transferrin expression", "setting": "hepatic RNA of LMB; [6]", "value": "Down-reg."}, {"measurement": "LMB83 vitellogenin-2 (Vtg 2) expression", "setting": "hepatic RNA of LMB; [7]", "value": "up-reg E2;"}, {"measurement": "LMB87 vitellogenin-1 (Vtg 1) expression", "setting": "hepatic RNA of LMB; [7]", "value": "up-reg E2;"}, {"measurement": "LMB97 choriogenin-3 expression", "setting": "hepatic RNA of LMB; [7]", "value": "up-regulated"}, {"measurement": "LMB108-1 choriogenin-2 expression", "setting": "hepatic RNA of LMB; [7]", "value": "up-regulated"}, {"measurement": "LMB97 choriogenin-3 expression", "setting": "hepatic RNA of LMB; [8]", "value": "Up-reg E2;"}, {"measurement": "LMB108-1 choriogenin-2 expression", "setting": "hepatic RNA of LMB; [8]", "value": "Up-reg E2; NP;"}]}]}
